Measured values reported in PubChem BioAssay (NCI).
“And” between values parts separate entries of the source, which are not always exact repeats. Equal values may be shown once.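 All cell lines were grown in 96-well plates and treated with compound for 48 hours. GI50: concentration for 50% inhibition of growth. TGI marks complete inhibition of growth.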

Columns and labels:
Assay in all cases: growth of human tumour cells (NCI), 48 h
786-0 renal = tested on: 786-0 renal
HL-60(TB) leukemia = tested on: HL-60(TB) leukemia
NCI-H226 lung = tested on: NCI-H226 lung
NCI-H23 lung = tested on: NCI-H23 lung
NCI-H460 lung = tested on: NCI-H460 lung
OVCAR-8 ovarian = tested on: OVCAR-8 ovarian
TK-10 renal = tested on: TK-10 renal
U251 CNS = tested on: U251 CNS
UO-31 renal = tested on: UO-31 renal
HCC-2998 colon = tested on: HCC-2998 colon

Row | SMILES | GI50 (786-0 renal) | TGI (786-0 renal) | GI50 (HL-60(TB) leukemia) | TGI (HL-60(TB) leukemia) | GI50 (NCI-H226 lung) | TGI (NCI-H226 lung) | GI50 (NCI-H23 lung) | TGI (NCI-H23 lung) | GI50 (NCI-H460 lung) | TGI (NCI-H460 lung) | GI50 (OVCAR-8 ovarian) | TGI (OVCAR-8 ovarian) | GI50 (TK-10 renal) | TGI (TK-10 renal) | GI50 (U251 CNS) | TGI (U251 CNS) | GI50 (UO-31 renal) | TGI (UO-31 renal) | TGI (HCC-2998 colon) | GI50 (HCC-2998 colon)
1 | COc1ccc(CC(C)C(C)Cc2ccc(OC)c(OC)c2)cc1OC (stereo not drawn) | 804 µM | > 1400 µM | > 1400 µM | > 1400 µM | 908 µM | > 1400 µM | 297 µM | > 1400 µM | > 1400 µM | > 1400 µM | > 1400 µM | > 1400 µM | > 1400 µM | > 1400 µM | 802 µM | > 1400 µM | > 1400 µM | > 1400 µM |  | 
2 | NC(N)=NS(=O)(=O)c1ccc(NC(=O)c2cccc3c(Nc4ccc(S(N)(=O)=O)cc4)c4ccccc4nc23)cc1 |  | > 100 µM |  |  |  |  |  | > 100 µM |  | > 100 µM |  | > 100 µM |  | > 100 µM |  | > 100 µM |  | > 100 µM | > 100 µM | 
3 | O=c1c(Cl)c(Cl)cnn1CCc1ccncc1 |  | 59.6 µM |  | 87.1 µM |  | 84.1 µM |  | 34.1 µM |  | 37.8 µM |  | 43.1 µM |  | > 100 µM |  |  |  | 36.2 µM | 27.9 µM | 
4 | CC1(C)CC[C@H](C2=CC(=O)c3c(O)ccc(O)c3C2=O)O1 | 0.829 µM and 1.28 µM and 0.237 µM | 2.07 µM and 2.8 µM and 0.504 µM | 0.505 µM and 0.131 µM | 1.36 µM and 0.442 µM | 5.01 µM and 1.79 µM and 0.611 µM |  | 2.14 µM and 0.836 µM and 0.639 µM | 6.41 µM and 2.07 µM and 2.36 µM | 5.14 µM and 1.61 µM and 1.45 µM | 19.5 µM and 3.36 µM and 3.86 µM | 2.27 µM and 0.675 µM and 0.581 µM | 20.4 µM and 3.44 µM and 2.12 µM | 1.5 µM and 1.72 µM and 0.604 µM | 3.98 µM and 3.1 µM and 1.66 µM | 3.71 µM and 2.51 µM and 1.5 µM | 6.5 µM and 7.21 µM and 3.19 µM | 1.39 µM and 1.69 µM and 0.391 µM | 4 µM and 3.06 µM and 0.838 µM |  | 
5 | O=c1ncccn1C1C=C(CO)C(O)C1O (stereo not drawn) |  | > 50 µM |  | > 50 µM |  | > 50 µM |  | > 50 µM |  | > 50 µM |  |  |  | > 50 µM |  | > 50 µM |  | > 50 µM | > 50 µM | 
6 | CC(=O)N[C@H](C(=O)N[C@@H](CCCNC(=N)N)C(=O)N[C@@H](CCCCN)C(=O)N[C@@H](CCCNC(=N)N)C(=O)N[C@]1(C)CCCCCC/C=C\CCC[C@@](C)(C(=O)N[C@@H](CCCNC(=N)N)C(=O)N[C@@H](CCC(=O)O)C(=O)N[C@@H](CC(C)C)C(=O)N[C@H](C(=O)N[C@@H](CCC(=O)O)C(N)=O)C(C)C)NC(=O)[C@H](CCC(N)=O)NC(=O)[C@H](CC(C)C)NC(=O)[C@H](CC(C)C)NC(=O)[C@H](CCCNC(=N)N)NC(=O)[C@H](CCCNC(=N)N)NC(=O)[C@H](CC(C)C)NC1=O)C(C)C | 1.24 µM | 2.91 µM | 5.19 µM | 18.5 µM | 2.43 µM | 28.7 µM | 2.77 µM | 30.1 µM |  |  | 1.6 µM | > 50 µM | 1.6 µM | 8.8 µM | 3.79 µM | 36.6 µM | 11.1 µM | 47.1 µM | 46.6 µM | 4.65 µM
7 | O=C1C2=C(c3ccccc31)C(c1ccccc1Cl)N1C(=O)CCSC1=N2 (stereo not drawn) |  | > 100 µM |  | > 100 µM |  | > 100 µM |  | > 100 µM |  |  |  | > 100 µM |  | > 100 µM |  | > 100 µM |  | > 100 µM | > 100 µM | 
8 | Cl[Si]1(Cl)Oc2ccccc2O[Si](Cl)(Cl)Oc2ccccc2O1 |  | 21.5 µM |  | 4.63 µM |  | > 100 µM |  | 84.6 µM |  | 65.9 µM |  | > 100 µM |  | > 100 µM |  | > 100 µM |  |  | 53.5 µM | 
9 | COc1cccc(/C=C2\CCC(C)(CN(C)C)C2=O)c1 (stereo not drawn) |  | > 100 µM |  |  |  | > 100 µM |  | > 100 µM |  | > 100 µM |  | > 100 µM |  | > 100 µM |  | > 100 µM |  | > 100 µM | > 100 µM | 
10 | NC(=O)/C=C/C(=O)O |  | > 5000 µM |  | > 5000 µM |  | > 5000 µM |  | > 5000 µM |  | > 5000 µM |  | > 5000 µM |  | > 5000 µM |  | > 5000 µM |  | > 5000 µM |  | 
11 | CCOC(=O)c1ccc(N[C@@H]2c3cc4c(cc3C(C3=CC(=O)C(=O)C(OC)=C3)[C@H]3C(=O)OCC32)OCO4)cc1 (stereo partly drawn) |  | 4.09 µM |  | > 19.7 µM |  |  |  | 4.21 µM |  | 5.84 µM |  | 15.9 µM |  | 38.9 µM |  | 4.77 µM |  | 9.43 µM | 10.9 µM | 
12 | CCSc1nc(N)c2cn[nH]c2n1 | 40.2 µM | > 100 µM |  |  | 16.9 µM | 57.1 µM | 20.7 µM | 58.9 µM | 35.1 µM | > 100 µM | 48.7 µM | > 100 µM | 7.54 µM | 34.3 µM | 43.1 µM | > 100 µM | 49 µM | > 100 µM |  | 
13 | CCN(CC)CC(=O)N1CCc2c([nH]c3ccccc23)C1c1cccnc1 (stereo not drawn) |  | > 100 µM |  | > 100 µM |  |  |  | > 100 µM |  | > 100 µM |  | > 100 µM |  | > 100 µM |  | > 100 µM |  | > 100 µM | > 100 µM | 
14 | CCC1=C[C@@H]2CN(C1)Cc1c([nH]c3ccccc13)[C@@](C(=O)OC)(c1cc3c(cc1OC)N(C)[C@H]1[C@@](O)(C(=O)OC)[C@H](OC(C)=O)[C@]4(CC)[C@@H]5C[C@@H]5CN5CC[C@]31[C@@H]54)C2 | < 0.005 µM and 0.0139 µM | 1.58 µM and 14.2 µM | < 0.005 µM |  | 0.0191 µM | 6.57 µM | < 0.005 µM and 0.0492 µM | 10.2 µM and 38.4 µM | < 0.005 µM | 5.05 µM and 11.6 µM | < 0.005 µM and 0.0292 µM | 6.9 µM and 12.7 µM |  |  | < 0.005 µM | 0.671 µM |  | 7.7 µM and 12.6 µM |  | < 0.005 µM and 0.0211 µM
15 | O=c1c2c3c(sc2n2c(-c4cc(-c5ccccc5)nn4-c4ccccc4)nnc2n1Cc1ccccc1)CCCC3 | > 100 µM | > 100 µM |  |  | > 100 µM | > 100 µM | > 100 µM | > 100 µM | > 100 µM | > 100 µM |  |  | > 100 µM | > 100 µM | > 100 µM | > 100 µM | > 100 µM | > 100 µM | > 100 µM | > 100 µM
16 | C=CCC1[C@@H](C(C)(C)C(C(C)=O)C(=O)C(=O)OC)OC(C(C)(C)C)N1C(=O)OC (stereo partly drawn) |  | > 100 µM |  |  |  | > 100 µM |  | > 100 µM |  | > 100 µM |  | > 100 µM |  | > 100 µM |  | > 100 µM |  | > 100 µM | > 100 µM | 
17 | c1ccc(Cn2cnc3ccc(-c4nc(-c5ccc6c(c5)ncn6C5CCCCC5)cn5ccnc45)cc32)cc1 | 0.799 µM | > 100 µM | 2.88 µM | 6.65 µM |  |  | 1.88 µM | 4.49 µM | 2.3 µM | 5.66 µM | 2.6 µM | 6.54 µM | 3.52 µM | > 100 µM |  |  | 1.72 µM | 4.55 µM | 3.41 µM | 1.9 µM
18 | O=C(NC12CC3CC(CC(C3)C1)C2)C(=O)c1c[nH]c2ccc(Cl)cc12 |  | 34.6 µM |  | > 100 µM |  | > 100 µM |  | > 100 µM |  | > 100 µM |  |  |  |  |  | > 100 µM |  | > 100 µM | > 100 µM | 
